Experimental findings from patent publication US10351578B2, “Heterocyclic-substituted pyridinopyrimidinone derivative as CDK inhibitor and use thereof” (Shanghai Xunhe Pharmaceutical Technology Co. Ltd., priority 2016, dated 2019) are described below.

The target in experiment [1] is T1, CDK4 protein kinase (GST-CDK4(1-303 end)) (Homo sapiens, UniProt P11802).
T1 construct: GST-CDK4(1-303 end); GST (N)
In words: CDK4 protein kinase activity, Caliper mobility shift assay. It is filed as biochemical. To be noted: substrate Peptide FAM-P8, 28° C. for 3 h. As to the method:
(§1) Activity Assay: The CDK4 protein kinase activity was measured using the Caliper mobility shift assay (see J. Biomol. Screen, 2009, PP31). The test compound was dissolved in DMSO and diluted with a kinase buffer solution (20 mM HEPES-pH 7.5, 0.01% Triton X-100, 10 mM MgCl2, 2 mM DTT) and 5 μL of the compound at 5-fold final concentration of reaction dissolved in 10% DMSO was added in a 384-well plate. The compound-free control well was 5 μL of 10% DMSO, and the no-activity control well was 5 μL of kinase buffer. 10 μL of a 2.5-fold diluted CDK4 enzyme solution (GST-CDK4(1-303 end)) was added and incubated at room temperature for 10 min, and then 10 μL of the 2.5-fold diluted substrate solution Peptide FAM-P8 was added. The reaction was stopped by adding 25 μL of stop solution after incubation at 28° C. for 3 h, and the conversion rate data was read on a Caliper EZ Reader II (Caliper Life Sciences) and the conversion rate was converted to inhibition rate data according to above method. Among them, the inhibition rate %=(max−conversion)/(max−min)×100%.

Experiment [2] has as its target T2, CDK6 protein kinase (GST-CDK6(1-326 end)) (Homo sapiens, UniProt Q00534).
T2 construct: GST-CDK6(1-326 end); GST (N)
Nature of the experiment: CDK6 protein kinase activity, Caliper mobility shift assay. It is filed as biochemical. To be noted: substrate Peptide FAM-P8, 28° C. for 3 h. As to the method:
as §1, with “CDK6” for “CDK4”, “(GST-CDK6(1-326” for “(GST-CDK4(1-303”

The structures appear in SMILES notation.

T1 sequence (P11802 whole entry): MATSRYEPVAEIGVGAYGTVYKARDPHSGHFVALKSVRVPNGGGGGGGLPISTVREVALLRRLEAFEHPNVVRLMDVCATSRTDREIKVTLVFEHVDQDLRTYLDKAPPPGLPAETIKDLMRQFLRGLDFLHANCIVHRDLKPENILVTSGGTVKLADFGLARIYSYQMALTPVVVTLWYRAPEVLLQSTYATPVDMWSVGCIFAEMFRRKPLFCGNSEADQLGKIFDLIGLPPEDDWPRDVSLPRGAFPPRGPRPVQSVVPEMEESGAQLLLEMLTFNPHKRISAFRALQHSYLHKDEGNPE
T1 sequence (P30281 whole entry partner): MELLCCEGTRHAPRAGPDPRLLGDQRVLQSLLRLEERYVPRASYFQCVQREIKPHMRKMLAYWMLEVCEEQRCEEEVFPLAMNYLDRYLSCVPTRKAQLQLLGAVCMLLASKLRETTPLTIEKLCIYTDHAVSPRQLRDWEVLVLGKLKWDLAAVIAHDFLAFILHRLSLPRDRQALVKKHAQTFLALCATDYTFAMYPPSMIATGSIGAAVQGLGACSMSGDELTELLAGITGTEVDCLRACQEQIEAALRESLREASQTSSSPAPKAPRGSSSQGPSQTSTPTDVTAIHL
T2 sequence (Q00534 whole entry): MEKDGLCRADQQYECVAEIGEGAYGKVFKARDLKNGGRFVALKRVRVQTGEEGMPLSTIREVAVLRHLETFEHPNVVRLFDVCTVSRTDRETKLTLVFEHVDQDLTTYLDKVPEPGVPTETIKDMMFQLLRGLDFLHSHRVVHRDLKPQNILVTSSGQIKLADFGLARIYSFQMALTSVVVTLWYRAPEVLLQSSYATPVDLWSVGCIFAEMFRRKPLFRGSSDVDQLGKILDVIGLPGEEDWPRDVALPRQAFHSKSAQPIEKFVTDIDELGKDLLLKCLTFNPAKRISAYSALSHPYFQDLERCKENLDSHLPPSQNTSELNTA
T2 sequence (P30281 whole entry partner): as the sequence (P30281 whole entry partner) above

On to `CC1(C)Oc2cnc(Nc3ccc(N4CCN(C5CCCC5)CC4)cn3)nc2N(C2CCCC2)C1=O` [Compound I-21, 6,6-dimethyl-8-cyclopentyl-2-(5-(4-cyclopentyl-1-piperazinyl)-pyridin-2-amino)-6H-pyrimido[5,4-b][1,4]oxazin-7(8H)-one], for which the IC50 is at most 0.02 µM in experiment [1] and 0.02 to 0.1 µM in experiment [2].
In the same order, the values of `CC1(C)Oc2cnc(Nc3ccc(N4CCN(C5CCCCC5)CC4)cn3)nc2N(C2CCCC2)C1=O` [Compound I-22, 6,6-dimethyl-8-cyclopentyl-2-(5-(4-cyclohexyl-1-piperazinyl)-pyridin-2-amino)-6H-pyrimido[5,4-b][1,4]oxazin-7(8H)-one] are at most 0.02 µM and at most 0.02 µM.
Take `CC1(C)Sc2cnc(Nc3ccc(N4CCN(C5CCCCCC5)CC4)cn3)nc2N(C2CCCC2)C1=O` [Compound I-23, 6,6-dimethyl-8-cyclopentyl-2-(5-(4-cycloheptyl-1-piperazinyl)-pyridin-2-amino)-6H-pyrimido[5,4-b][1,4]thiazin-7(8H)-one]: the IC50 in experiment [1] and in experiment [2] was at most 0.02 µM throughout.
As to `CC(C)N1CCN(c2ccc(Nc3ncc4c(n3)N(C3CCCC3)C(=O)C(C)(C)S4)nc2)CC1` [Compound I-24, 6,6-dimethyl-8-cyclopentyl-2-(5-(4-isopropyl-1-piperazinyl)-pyridin-2-amino)-6H-pyrimido[5,4-b][1,4]thiazin-7(8H)-one], the half-maximal inhibitory concentration (IC50) in experiment [1] and in experiment [2] was at most 0.02 µM each time.
Take `CCN1CCN(Cc2ccc(Nc3ncc4c(n3)N(C3CCCC3)C(=O)C(C(C)=O)O4)nc2)CC1` (stereo not drawn) [Compound I-26, 6-acetyl-8-cyclopentyl-2-(5-(4-ethyl-1-piperazinyl)methyl-pyridin-2-amino)-6H-pyrimido[5,4-b][1,4]oxazin-7(8H)-one]: the IC50 in experiment [1] was at most 0.02 µM; in experiment [2], 0.1 to 0.5 µM.
The matching figures for `CCN1CCN(Cc2ccc(Nc3ncc4c(n3)N(C3CCCC3)C(=O)C(C#N)O4)nc2)CC1` (stereo not drawn) [Compound I-27, 6-cyano-8-cyclopentyl-2-(5-(4-ethyl-1-piperazinyl)methyl-pyridin-2-amino)-6H-pyrimido[5,4-b][1,4]oxazin-7(8H)-one]: at most 0.02 µM and at most 0.02 µM.
In the same order, the values of `CCN1CCN(Cc2ccc(Nc3ncc4c(n3)N(C3CCCC3)C(=O)C3(CCC3)O4)nc2)CC1` [Compound I-28] are at most 0.02 µM and 0.02 to 0.1 µM.
The matching figures for `CC1(C)Oc2cnc(Nc3ccc(N4CCNCC4)cn3)nc2N(c2cccs2)C1=O` [Compound I-29, 6,6-dimethyl-8-(2-thienyl)-2-(5-(1-piperazinyl)-pyridin-2-amino)-6H-pyrimido[5,4-b][1,4]oxazin-7(8H)-one]: at most 0.02 µM and at most 0.02 µM.
Consider `CCN1CCN(Cc2ccc(Nc3ncc4c(n3)N(c3ccccn3)C(=O)C(C)(C)O4)nc2)CC1` [Compound I-30, 6,6-dimethyl-8-(2-pyridyl)-2-(5-(4-ethyl-1-piperazinyl)methyl-pyridine-2-amino)-6H-pyrimido[5,4-b][1,4]oxazin-7(8H)-one], for which the IC50 in experiment [1] is at most 0.02 µM; in experiment [2], 0.02 to 0.1 µM.
The matching figures for `CCN1CCN(Cc2ccc(Nc3ncc4c(n3)N(c3ncccn3)C(=O)C(C)(C)O4)nc2)CC1` [Compound I-31, 6,6-dimethyl-8-(2-pyrimidinyl)-2-(5-(4-ethyl-1-piperazinyl)methyl-pyridine-2-amino)-6H-pyrimido[5,4-b][1,4]oxazin-7(8H)-one]: at most 0.02 µM and at most 0.02 µM.
The matching figures for `CC1(C)Oc2cnc(Nc3ccc(N4CCNCC4)cn3)nc2N(c2ccco2)C1=O` [Compound I-32]: at most 0.02 µM and above 0.5 µM.
In the same order, the values of `CN(C)C(=O)C1Oc2cnc(Nc3ccc(N4CCNCC4)cn3)nc2N(C2CCCC2)C1=O` (stereo not drawn) [Compound I-33, N,N-dimethyl-6-carboxamide-8-cyclopentyl-2-(5-(1-piperazinyl)-pyridin-2-amino)-6H-pyrimido[5,4-b][1,4]oxazin-7(8H)-one] are at most 0.02 µM and at most 0.02 µM.

A word on the IC50: it is the concentration that inhibits the measured activity by half.
